Experiment [1] concerns the target T1, hM4Di in VTA DA neurons (Homo sapiens, UniProt P08173, A203G/Y113C).
T1 construct: mCherry; expressed in transfected cells; host or cells: VTA dopamine neurons of DAT-IRES-cre mice, Cre-dependent AAV5
The experiment can be described thus: Chemogenetic inhibition of VTA DA neurons with NAc dLight1.3b photometry. In kind it is in vivo, mouse. To be noted: J60 0.2 or 1 mg/kg, 10 minutes after DETQ. As for the experimental part: Fiber photometry combined with optogenetics was conducted using a RZ10X LUX-I/O Processor with integrated LEDs (Tucker-Davis Technologies) combined with a filter/mirror minicube set (FMC6_IE(400-410)_E1(467-497)_F1(507-554)_E2(566-586)_F2(600-680)_S) (Doric Lenses). […] Low-autofluorescence patch cords (400 µm/0.57 NA, Doric) were attached to the optic fibers (400 µm/0.66 NA, Doric) on the mouse’s head to collect fluorescence emissions. Signals were filtered through 500–540 nm GFP emission filters coupled to a photodetector on the RZ10X. […] Data were sampled at 1017.3 Hz. […] DA release was measured with fiber photometry. […] After each injection, NAc DA axons were optically (opto) activated across 3 trials (2 s, 20 Hz, 20-ms pulses) every 5 min and DA released measured with fiber photometry. […] After each injection, NAc DA axons were optically (opto) inhibited (10 s, continuous trials) every 3 min (8 trials/condition) and DA released measured with fiber photometry. […] DA release was measured with fiber photometry.
For long-term recordings during optogenetic stimulation or chemogenetic inhibition linear fit was calculated across the entire recording or across the vehicle epoch; for event-related experiments fit was performed on fluorescent data obtained in the −60 to +60 s around opto events or −5 to −1 s around behavioral events. […]

The conditions of experiment [2]: ref Svensson et al 2019; Meltzer et al., 2019; Rajagopal et al., 2024; cited from earlier work.
Experiment [3] has as its system NAc DRD1-MSNs. The experiment is described as follows: Footshock-induced NAc DRD1-MSN activity (jGCaMP8m photometry). The note with it: DETQ 10 mg/kg; SCH-23390 0.1 mg/kg i.p.
Protocol: Cue-reward paradigm (NAc recordings) was carried out in an operant chamber within a sound-attenuating box with low red light illumination (30 Lux). […] During the next session mice were trained to initiate reward delivery via licking. […] During expert sessions CS-US pairings were repeated 20 times per session ( ~ 30 min for each session). Mice underwent a total of 12 sessions for cue-reward learning. 10 minutes before each session drugs were injected i.p. […] The rewards were delivered from 10 to 40 min post vehicle or DETQ injection. Chambers and lick ports were sanitized with ethanol between mice. For all sessions, lick data and photometry recordings were simultaneously obtained; licking behaviour was detected by a capacity-based sensor. Latency to reward-anticipatory licking was calculated as the time between the CS and lick onset. The lick proportion was calculated as the percent time mice spent licking during CS presentation divided by the percent time mice spent licking during the rest of the session (without CS). […] Fiber photometry recordings were analyzed using custom-written Matlab scripts. […] Change in fluorescence, ΔF/F0 (%), was defined as (F-F0)/F0 x 100, where F represents the fluorescent signal (465-nm) at each time point. F0 was calculated by applying a least-squares linear fit (polyfit) to the 405-nm signal to align with the 465-nm signal. […]
Experiment [4] concerns AlloLite-ctr. The experiment can be described thus: In vivo photometry of AlloLite-ctr in NAc. Also noted: species or system mouse. To be noted: cocaine 20 mg/kg. As for the experimental part: Fiber photometry combined with optogenetics was conducted using a RZ10X LUX-I/O Processor with integrated LEDs (Tucker-Davis Technologies) combined with a filter/mirror minicube set (FMC6_IE(400-410)_E1(467-497)_F1(507-554)_E2(566-586)_F2(600-680)_S) (Doric Lenses). […] Low-autofluorescence patch cords (400 µm/0.57 NA, Doric) were attached to the optic fibers (400 µm/0.66 NA, Doric) on the mouse’s head to collect fluorescence emissions. Signals were filtered through 500–540 nm GFP emission filters coupled to a photodetector on the RZ10X. […] Data were sampled at 1017.3 Hz. […] For optogenetic stimulation, a 635 nm LED was passed through the 580–680 nm minicube F2 port and reached the mouse through the same unique optic fiber; the LED was driven at 1 to 3 mW. To determine the ‘temporal window for stable imaging’ in the PFC using dLight1.3b recordings, DAT^IREScre mice expressing ChrimsonR in VTA DA axons and dLight1.3b in the PFC were injected i.p. with vehicle at 0 min, followed by DETQ (10 mg/kg) 25 min later. […] DA release was measured with fiber photometry. […] After each injection, NAc DA axons were optically (opto) activated across 3 trials (2 s, 20 Hz, 20-ms pulses) every 5 min and DA released measured with fiber photometry. […] After each injection, NAc DA axons were optically (opto) inhibited (10 s, continuous trials) every 3 min (8 trials/condition) and DA released measured with fiber photometry. […] DA release was measured with fiber photometry.
For long-term recordings during optogenetic stimulation or chemogenetic inhibition linear fit was calculated across the entire recording or across the vehicle epoch; for event-related experiments fit was performed on fluorescent data obtained in the −60 to +60 s around opto events or −5 to −1 s around behavioral events. […] DA event-related responses were quantified by computing the value at the transient’s peak value and the AUC in the 0 to 10 s or 0 to 60 s period post-event onset. […]

A short description of experiment [5]: Open field behavior. In kind it is in vivo, mouse. To be noted: untethered mice, 45 min; DETQ 3, 10, 30 mg/kg i.p.; cocaine 20 mg/kg. As for the experimental part: For combined locomotion/photometry experiments in the open field (OF) in tethered mice, a 50 × 50 cm arena was used. Fiber photometry was conducted using a Doric photometry rig combined with a filter/mirror minicube set (Doric Lenses), as above. […] Data were sampled at 122 Hz. […] Mice were habituated to the chamber for 3 consecutive days (30 minutes per day). On experimental days, locomotor activity was video recorded and synchronized with fiber photometry signal recording. The baseline DA signal was recorded for 20 minutes, then the mouse received i.p. injection of vehicle or DETQ (10 mg/kg) in interleaved sessions. Following injection, the DA signal was recorded for an additional 90 minutes. The OF chamber was cleaned with ethanol and water between mice. Recording sessions were repeated at 48 hours intervals. Mouse behavior as well as photometry signals were analyzed with a custom-written MATLAB script. Mouse locomotion was computed using the body center point of the animal. The center zone of the arena was defined automatically during behavior data analysis as the 25 × 25 cm square with the central point aligned to the center of the open field. The distance moved and time spent in the center zone were quantified in 10 minutes time bins and as the total during the 90 minutes after ip injections. To test the dose-dependent effects of DETQ on locomotion in untethered mice, mice were injected i.p. with vehicle, DETQ (3, 10 or 30 mg/kg) or cocaine (20 mg/kg) while their locomotor activity was recorded in an OF arena (60 x 60 cm) for 45 min. Videos were recorded with a Logitech C270 camera and analyzed with DeepLabCut (version 2.1.8.2)[84] on an existing open field network. Representative traces were generated with the Anymaze (v7.2) software (Stoelting Co.).

Experiment [6] deals with dLight1.3b. The experiment can be described thus: In vivo photometry of optogenetically-evoked DA release in PFC. Also noted: species or system mouse. The note with it: cocaine 20 mg/kg after DETQ 10 mg/kg. As for the experimental part:
Fiber photometry combined with optogenetics was conducted using a RZ10X LUX-I/O Processor with integrated LEDs (Tucker-Davis Technologies) combined with a filter/mirror minicube set (FMC6_IE(400-410)_E1(467-497)_F1(507-554)_E2(566-586)_F2(600-680)_S) (Doric Lenses). […] Low-autofluorescence patch cords (400 µm/0.57 NA, Doric) were attached to the optic fibers (400 µm/0.66 NA, Doric) on the mouse’s head to collect fluorescence emissions. Signals were filtered through 500–540 nm GFP emission filters coupled to a photodetector on the RZ10X. […] Data were sampled at 1017.3 Hz. […] For optogenetic stimulation, a 635 nm LED was passed through the 580–680 nm minicube F2 port and reached the mouse through the same unique optic fiber; the LED was driven at 1 to 3 mW. To determine the ‘temporal window for stable imaging’ in the PFC using dLight1.3b recordings, DAT^IREScre mice expressing ChrimsonR in VTA DA axons and dLight1.3b in the PFC were injected i.p. with vehicle at 0 min, followed by DETQ (10 mg/kg) 25 min later. After each injection, PFC DA axons were optically (opto) activated across 5 trials (2 s, 20 Hz, 20-ms pulses) for the vehicle (20 min) and […] for DETQ (1h05 min) every 5 min. DA release was measured with fiber photometry. In another session, the same mice were injected with Veh, then DETQ (10 mg/kg) 20 min later, then cocaine (20 mg/kg) 25 min later, and the same optogenetic protocol was applied (2 s, 20 Hz, 20-ms pulses every 5 min). For optogenetic validation of AlloLite-ctr in the NAc, DAT^IREScre mice expressing ChrimsonR in VTA DA axons were injected i.p. with vehicle (Day 1) or DETQ (10 mg/kg) (Day 8) at 0 min, followed by cocaine (20 mg/kg) 20 min later. After each injection, NAc DA axons were optically (opto) activated across 3 trials (2 s, 20 Hz, 20-ms pulses) every 5 min and DA released measured with fiber photometry. […] After each injection, NAc DA axons were optically (opto) inhibited (10 s, continuous trials) every 3 min (8 trials/condition) and DA released measured with fiber photometry. […] DA release was measured with fiber photometry.
For long-term recordings during optogenetic stimulation or chemogenetic inhibition linear fit was calculated across the entire recording or across the vehicle epoch; for event-related experiments fit was performed on fluorescent data obtained in the −60 to +60 s around opto events or −5 to −1 s around behavioral events. […] DA event-related responses were quantified by computing the value at the transient’s peak value and the AUC in the 0 to 10 s or 0 to 60 s period post-event onset. […] The maximal peak value of Veh-normalized ΔF/F0 after opto-onset was plotted over time and the plateau of maximal response was determined by averaging peak opto responses 5, 10, 15 and 20 min post-DETQ. […]

Experiment [7] concerns the target T2, mouse DA transporter (DAT) (Mus musculus, UniProt Q61327).
T2 construct: Lack of DETQ effect on the endogenous DA transporter; from tissue; host or cells: mouse striatal brain slices
The experiment is described as follows: Fast-scan cyclic voltammetry of DA release in striatal slices. The note with it: bath application: DETQ 200 nM; cocaine 5 µM. As for the experimental part: Striatal DA release was measured using fast-scan cyclic voltammetry (FSCV) with a carbon fiber electrode (CFE; diameter 7 µm, length 50–100 µm) positioned approximately 100 µm below the surface of the slice. The CFE was scanned across a triangular waveform (−0.4 to +1.3 V, 400 V/s) at 10 Hz, and DA release was evoked by single-pulse electrical stimulation (30 µA, 0.5 ms) with an inter-stimulus interval of 180 s. DA release was evoked in the presence of DHBE (1 µM) to block nicotinic acetylcholine receptors. Peak background-subtracted DA oxidation current was measured at +0.6 V, and drugs were washed on after establishing a stable baseline.

The values below come from article PMC11219860, “A chemogenetic approach for dopamine imaging with tunable sensitivity” (Nature Communications, 2024).

T2 sequence (Q61327 whole entry): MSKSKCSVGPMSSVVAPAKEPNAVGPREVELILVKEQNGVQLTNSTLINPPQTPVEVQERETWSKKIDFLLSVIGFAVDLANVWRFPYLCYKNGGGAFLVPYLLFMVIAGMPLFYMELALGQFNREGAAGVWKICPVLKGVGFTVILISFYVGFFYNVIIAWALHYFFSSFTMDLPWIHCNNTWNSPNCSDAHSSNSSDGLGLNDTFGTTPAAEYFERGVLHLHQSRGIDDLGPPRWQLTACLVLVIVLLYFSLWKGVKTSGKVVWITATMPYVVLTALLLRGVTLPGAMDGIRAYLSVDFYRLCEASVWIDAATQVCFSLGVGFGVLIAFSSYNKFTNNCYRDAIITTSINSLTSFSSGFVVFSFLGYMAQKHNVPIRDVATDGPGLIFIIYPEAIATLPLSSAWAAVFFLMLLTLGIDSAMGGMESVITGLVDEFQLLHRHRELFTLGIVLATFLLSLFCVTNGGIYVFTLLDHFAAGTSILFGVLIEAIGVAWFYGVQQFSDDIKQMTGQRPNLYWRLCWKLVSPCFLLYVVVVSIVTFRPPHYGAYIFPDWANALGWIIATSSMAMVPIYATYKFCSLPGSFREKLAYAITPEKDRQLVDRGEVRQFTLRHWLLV
T1 sequence (P08173 whole entry Y113C/A203G): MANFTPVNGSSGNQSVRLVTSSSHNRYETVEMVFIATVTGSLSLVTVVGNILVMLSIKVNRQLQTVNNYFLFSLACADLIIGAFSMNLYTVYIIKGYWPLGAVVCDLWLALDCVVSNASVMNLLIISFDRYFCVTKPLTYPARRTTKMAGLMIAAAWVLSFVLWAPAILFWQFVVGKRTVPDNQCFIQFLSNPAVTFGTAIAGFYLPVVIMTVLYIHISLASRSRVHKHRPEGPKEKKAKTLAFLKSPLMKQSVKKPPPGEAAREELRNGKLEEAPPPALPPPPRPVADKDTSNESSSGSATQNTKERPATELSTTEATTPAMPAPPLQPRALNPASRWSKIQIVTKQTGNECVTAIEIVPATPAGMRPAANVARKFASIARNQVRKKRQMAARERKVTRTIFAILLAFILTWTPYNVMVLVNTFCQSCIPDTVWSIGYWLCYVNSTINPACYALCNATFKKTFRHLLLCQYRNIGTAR

On to `CCN1CCN(C2=Nc3cc(Cl)ccc3Nc3c(F)cccc32)CC1` [J60], for which, in experiment [1], the “step-like increase in dLight1.3b baseline signal observed with DETQ” value is “dose-dependently decreased”.

On to `CN1CCc2cc(Cl)c(O)cc2[C@@H](c2ccccc2)C1` [SCH-23390], for which the “behavioral effect of DETQ in hD1 mice” value in experiment [2] was “blocked”. For the same molecule, the “footshock-induced activity in NAc DRD1-MSNs” value in experiment [3] is “reduces”.

As to `COC(=O)[C@H]1[C@@H](OC(=O)c2ccccc2)C[C@@H]2CC[C@H]1N2C` [cocaine], the “decay time of opto-evoked DA peaks” value in experiment [4] was “increased decay time”. Besides, the “locomotion in open field” value in experiment [5] is on record as “increase”. In experiment [6], the “baseline fluorescence of the sensor after DETQ” value is “further boosted”. Besides, in experiment [7], the “decay constant (tau) of DA signals” value is recorded as “slowed the decay” and the “peak DA release” value is recorded as “significantly increased”.
